How the values were obtained:
[1] = target: T1, B2 bradykinin receptor (Homo sapiens, UniProt P30411); type: cell membranes, Membrane; conditions: chem-1; further: in other assays of this panel Not Active means under 50% inhibition at 10 µM
T1 sequence (P30411 whole entry): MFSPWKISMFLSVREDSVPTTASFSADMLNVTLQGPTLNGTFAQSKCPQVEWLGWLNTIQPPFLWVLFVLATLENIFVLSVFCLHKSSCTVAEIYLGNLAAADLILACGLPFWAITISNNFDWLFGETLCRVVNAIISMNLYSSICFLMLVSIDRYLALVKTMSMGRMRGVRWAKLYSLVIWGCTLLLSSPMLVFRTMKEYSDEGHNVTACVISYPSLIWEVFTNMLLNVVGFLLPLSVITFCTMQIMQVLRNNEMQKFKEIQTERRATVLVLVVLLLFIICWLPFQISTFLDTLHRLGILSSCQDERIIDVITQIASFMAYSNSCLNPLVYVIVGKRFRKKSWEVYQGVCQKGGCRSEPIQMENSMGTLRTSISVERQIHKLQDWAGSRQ

[2] = target: 5-hydroxytryptamine receptor 4 (Cavia porcellus, UniProt O70528); type: cell membranes, Dunkin-Hartley, Striatum, Membrane; further: in other assays of this panel Not Active means under 50% inhibition at 10 µM
Chain of 5-hydroxytryptamine receptor 4 (O70528 whole entry): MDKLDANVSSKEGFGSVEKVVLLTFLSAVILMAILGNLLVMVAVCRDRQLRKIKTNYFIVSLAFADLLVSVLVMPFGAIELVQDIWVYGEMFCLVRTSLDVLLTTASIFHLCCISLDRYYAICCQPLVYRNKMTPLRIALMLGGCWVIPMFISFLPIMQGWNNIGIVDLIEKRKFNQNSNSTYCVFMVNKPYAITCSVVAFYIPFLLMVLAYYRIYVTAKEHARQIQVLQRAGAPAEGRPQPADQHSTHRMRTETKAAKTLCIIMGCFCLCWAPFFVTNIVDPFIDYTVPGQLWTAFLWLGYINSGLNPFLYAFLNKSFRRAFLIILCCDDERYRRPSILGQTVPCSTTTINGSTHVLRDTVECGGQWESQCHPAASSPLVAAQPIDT

[3] = target: T2, C-X-C chemokine receptor type 1 (Homo sapiens, UniProt P25024); further: in other assays of this panel Not Active means under 50% inhibition at 10 µM
T2 sequence (P25024 whole entry): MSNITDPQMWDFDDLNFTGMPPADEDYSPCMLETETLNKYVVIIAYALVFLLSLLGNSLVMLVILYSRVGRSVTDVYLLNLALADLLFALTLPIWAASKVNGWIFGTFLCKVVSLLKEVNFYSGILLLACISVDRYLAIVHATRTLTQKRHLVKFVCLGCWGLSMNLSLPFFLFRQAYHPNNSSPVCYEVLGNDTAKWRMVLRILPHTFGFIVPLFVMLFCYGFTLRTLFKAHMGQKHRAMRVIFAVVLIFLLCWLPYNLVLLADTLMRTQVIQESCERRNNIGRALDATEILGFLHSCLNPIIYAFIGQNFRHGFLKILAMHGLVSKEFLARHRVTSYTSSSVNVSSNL

[4] = target: Prostaglandin G/H synthase 1 (Homo sapiens, UniProt P23219); assay: biochemical; type: tissue-based, Platelet;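 further: inhibition of COX-1 enzyme activity, with arachidonic acid supplied as substrate; in other assays of this panel Not Active means under 50% inhibition at 10 µM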
Chain of Prostaglandin G/H synthase 1 (P23219 whole entry): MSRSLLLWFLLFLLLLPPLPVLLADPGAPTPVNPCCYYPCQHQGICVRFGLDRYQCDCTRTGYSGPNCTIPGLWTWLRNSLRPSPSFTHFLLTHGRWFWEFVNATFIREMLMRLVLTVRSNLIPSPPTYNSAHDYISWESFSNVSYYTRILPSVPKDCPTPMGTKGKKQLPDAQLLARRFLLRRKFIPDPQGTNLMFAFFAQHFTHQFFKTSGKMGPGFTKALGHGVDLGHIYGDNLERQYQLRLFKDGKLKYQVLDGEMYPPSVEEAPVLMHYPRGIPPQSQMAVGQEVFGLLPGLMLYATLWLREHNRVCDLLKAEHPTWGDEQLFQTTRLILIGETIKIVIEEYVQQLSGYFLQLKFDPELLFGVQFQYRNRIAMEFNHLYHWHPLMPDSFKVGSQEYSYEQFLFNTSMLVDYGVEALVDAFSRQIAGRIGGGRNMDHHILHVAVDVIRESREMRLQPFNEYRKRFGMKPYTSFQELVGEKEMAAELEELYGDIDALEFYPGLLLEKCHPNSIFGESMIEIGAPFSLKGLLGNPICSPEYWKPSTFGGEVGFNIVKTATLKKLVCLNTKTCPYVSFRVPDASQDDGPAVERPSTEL

[5] = target: T3, D(4) dopamine receptor (Homo sapiens, UniProt P21917); assay: DRUGMATRIX: Dopamine D4.2 radioligand binding (ligand: [3H] Spiperone); type: cell membranes, Membrane; conditions: cho-k1; Not Active = under 50% inhibition at 10 µM
T3 sequence (P21917 whole entry): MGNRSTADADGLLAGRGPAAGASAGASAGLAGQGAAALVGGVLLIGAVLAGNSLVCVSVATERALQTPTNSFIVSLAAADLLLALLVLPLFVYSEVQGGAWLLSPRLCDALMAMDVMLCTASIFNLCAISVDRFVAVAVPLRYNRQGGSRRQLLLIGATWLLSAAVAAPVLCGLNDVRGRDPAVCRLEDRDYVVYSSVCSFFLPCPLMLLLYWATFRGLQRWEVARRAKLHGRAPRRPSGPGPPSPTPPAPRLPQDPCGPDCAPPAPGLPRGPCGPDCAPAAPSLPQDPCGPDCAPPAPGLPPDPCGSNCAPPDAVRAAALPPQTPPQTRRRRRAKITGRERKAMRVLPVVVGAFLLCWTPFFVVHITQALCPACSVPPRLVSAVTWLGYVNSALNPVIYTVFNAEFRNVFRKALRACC

[6] = DRUGMATRIX: GABAA, Muscimol, Central radioligand binding (ligand: [3H] Muscimol); type: cell membranes, Rattus norvegicus, Wistar, Brain, Membrane; conditions: Not Active = under 50% inhibition at 10 µM
[7] = target: T4, Polyunsaturated fatty acid lipoxygenase ALOX15 (Oryctolagus cuniculus, UniProt P12530); assay: biochemical; type: tissue-based, Reticulocytes
T4 sequence (P12530 whole entry): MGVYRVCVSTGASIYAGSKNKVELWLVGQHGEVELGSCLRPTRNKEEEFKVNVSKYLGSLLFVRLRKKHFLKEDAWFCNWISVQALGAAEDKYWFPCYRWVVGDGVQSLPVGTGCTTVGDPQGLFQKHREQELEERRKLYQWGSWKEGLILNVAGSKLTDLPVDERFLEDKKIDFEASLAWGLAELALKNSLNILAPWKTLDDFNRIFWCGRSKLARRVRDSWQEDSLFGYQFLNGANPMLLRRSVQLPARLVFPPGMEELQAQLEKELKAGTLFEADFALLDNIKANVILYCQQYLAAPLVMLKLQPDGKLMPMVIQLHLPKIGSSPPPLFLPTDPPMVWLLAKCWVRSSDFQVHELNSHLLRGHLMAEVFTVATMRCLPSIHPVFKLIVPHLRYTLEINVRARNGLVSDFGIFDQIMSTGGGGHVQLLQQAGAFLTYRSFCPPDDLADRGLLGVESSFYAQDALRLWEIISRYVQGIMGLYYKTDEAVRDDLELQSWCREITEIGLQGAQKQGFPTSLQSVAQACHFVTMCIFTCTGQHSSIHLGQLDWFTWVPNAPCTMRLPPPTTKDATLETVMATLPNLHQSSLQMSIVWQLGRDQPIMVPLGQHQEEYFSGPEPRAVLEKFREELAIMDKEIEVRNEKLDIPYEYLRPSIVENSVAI

[8] = target: Melanocortin receptor 4 (Homo sapiens, UniProt P32245); type: cell membranes, Membrane; conditions: hek293; further: in other assays of this panel Not Active means under 50% inhibition at 10 µM
Chain of Melanocortin receptor 4 (P32245 whole entry): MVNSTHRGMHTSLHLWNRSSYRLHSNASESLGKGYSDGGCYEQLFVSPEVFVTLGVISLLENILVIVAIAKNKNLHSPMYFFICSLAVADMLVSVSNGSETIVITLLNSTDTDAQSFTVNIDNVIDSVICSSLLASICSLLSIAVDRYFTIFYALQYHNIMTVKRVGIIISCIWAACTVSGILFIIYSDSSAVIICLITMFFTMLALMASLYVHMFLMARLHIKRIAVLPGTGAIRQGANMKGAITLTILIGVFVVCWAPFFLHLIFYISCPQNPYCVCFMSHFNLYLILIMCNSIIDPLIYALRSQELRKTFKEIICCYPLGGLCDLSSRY

[9] = target: T5, Cathepsin G (Homo sapiens, UniProt P08311); type: tissue-based; conditions: neutrophil
T5 sequence (P08311 whole entry): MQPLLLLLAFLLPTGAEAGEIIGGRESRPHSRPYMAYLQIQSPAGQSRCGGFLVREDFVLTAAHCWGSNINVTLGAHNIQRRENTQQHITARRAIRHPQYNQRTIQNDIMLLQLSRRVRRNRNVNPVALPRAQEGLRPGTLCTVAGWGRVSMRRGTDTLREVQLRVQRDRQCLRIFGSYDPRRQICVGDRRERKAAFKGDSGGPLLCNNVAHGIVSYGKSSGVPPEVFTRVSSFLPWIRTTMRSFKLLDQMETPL

SMILES | IC50 [1] | IC50 [2] | IC50 [3] | IC50 ([4]; platelet) | IC50 [5] | IC50 [6] | Ki [6] | IC50 ([7]; reticulocytes) | IC50 [8] | IC50 [9] | IC50 ([4]; read-out: IC50) [µM] | Ki [1] | IC50 ([7]; read-out: IC50) [µM]
[H]/N=C(/N)N[C@H]1[C@H](O)[C@@H](O)[C@H](O[C@@H]2O[C@@H](C)[C@](O)(C=O)[C@H]2O[C@@H]2O[C@@H](CO)[C@H](O)[C@@H](O)[C@@H]2NC)[C@@H](N/C(N)=N\[H])[C@@H]1O [STREPTOMYCIN] | Not Active | Not Active | Not Active | Not Active | Not Active | Not Active | Not Active | Not Active | Not Active | Not Active | – | – | –
COc1cc(NS(=O)(=O)c2ccc(N)cc2)nc(OC)n1 [SULFADIMETHOXINE] | Not Active | Not Active | Not Active | Not Active | Not Active | Not Active | Not Active | Not Active | Not Active | Not Active | – | – | –
Cc1cc(C)nc(NS(=O)(=O)c2ccc(N)cc2)n1 [SULFAMETHAZINE] | Not Active | Not Active | Not Active | Not Active | Not Active | Not Active | Not Active | Not Active | Not Active | Not Active | – | – | –
C[C@]1(Cn2ccnn2)[C@H](C(=O)O)N2C(=O)C[C@H]2S1(=O)=O [TAZOBACTAM] | Not Active | Not Active | Not Active | Not Active | Not Active | Not Active | Not Active | Not Active | Not Active | Not Active | – | – | –
CN1C(C(=O)Nc2ccccn2)=C(O)c2sccc2S1(=O)=O [TENOXICAM] | Not Active | Not Active | Not Active | – | Not Active | Not Active | Not Active | Not Active | Not Active | Not Active | 1.14 | – | –
CC(C)(C)c1ccc(C(O)CCCN2CCC(C(O)(c3ccccc3)c3ccccc3)CC2)cc1 (stereo not given) [TERFENADINE] | Not Active | Not Active | Not Active | Not Active | Not Active | Not Active | Not Active | Not Active | Not Active | Not Active | – | – | –
O=C1CCC(N2C(=O)c3ccccc3C2=O)C(=O)N1 (stereo not given) [THALIDOMIDE] | Not Active | Not Active | Not Active | Not Active | Not Active | Not Active | Not Active | Not Active | Not Active | Not Active | – | – | –
Cc1cccc(Nc2ccncc2S(=O)(=O)NC(=O)NC(C)C)c1 [TORSEMIDE] | – | Not Active | Not Active | Not Active | Not Active | Not Active | Not Active | Not Active | Not Active | Not Active | – | Not Active | –
CC(C)C[C@H](NC(=O)[C@@H](O)[C@H](N)Cc1ccccc1)C(=O)O [UBENIMEX] | Not Active | Not Active | Not Active | Not Active | Not Active | Not Active | Not Active | Not Active | Not Active | Not Active | – | – | –
Cc1onc(-c2ccccc2)c1-c1ccc(S(N)(=O)=O)cc1 [VALDECOXIB] | Not Active | Not Active | Not Active | Not Active | Not Active | Not Active | Not Active | Not Active | Not Active | Not Active | – | – | –
CC[C@]1(O)C[C@@H]2CN(CCc3c([nH]c4ccccc34)[C@@](C(=O)OC)(c3cc4c(cc3OC)N(C)[C@H]3[C@@](O)(C(=O)OC)[C@H](OC(C)=O)[C@]5(CC)C=CCN6CC[C@]43[C@@H]65)C2)C1 [VINBLASTINE] | Not Active | Not Active | Not Active | Not Active | Not Active | Not Active | Not Active | – | Not Active | Not Active | – | – | 5.04
CC(=O)CC(c1ccccc1)c1c(O)c2ccccc2oc1=O (stereo not given) [WARFARIN] | Not Active | Not Active | Not Active | Not Active | Not Active | Not Active | Not Active | Not Active | Not Active | Not Active | – | – | –
C[C@@H](N)[C@H]1CC[C@H](C(=O)Nc2ccncc2)CC1 [Y-27632] | Not Active | Not Active | Not Active | Not Active | Not Active | Not Active | Not Active | Not Active | Not Active | Not Active | – | – | –
[Cl-].[Cl-].[Zn+2] [ZINC CHLORIDE] | Not Active | Not Active | Not Active | Not Active | Not Active | Not Active | Not Active | Not Active | Not Active | Not Active | – | – | –

— ChEMBL document CHEMBL1909046, “DrugMatrix in vitro pharmacology data”
